{"source": "paper PMC9241943", "about": "“LcCCL28-25, Derived from Piscine Chemokine, Exhibits Antimicrobial Activity against Gram-Negative and Gram-Positive Bacteria In Vitro and In Vivo” (Microbiology Spectrum, 2022)", "key": {"[1]": {"test_system": "methicillin-resistant S. aureus standard strain USA300", "experiment": "Neutropenic mouse thigh infection model", "type": "in vivo", "conditions": "neutropenic BALB/c mice, 300 μg i.p. at 2 h postinfection", "method": "Female BALB/c mice were used to construct a neutropenic murine thigh infection model as previously published ([48][–][50]). Briefly, mice (n = 9/group) were rendered neutropenic by consecutive intraperitoneal injections of 150 and 100 mg/kg of body weight cyclophosphamide at 4 and 1 day before bacterial injection ([51]). An S. aureus USA300 inoculum (~1.5 × 10^6 CFU/mL) was prepared by diluting logarithmic phase bacteria with fresh MHB. Each mouse was infected by intramuscular injection of 0.1 mL of the inoculum (~1.5 × 10^5 CFU) into the right thigh muscles. At 2 h postinfection, 0.1 mL of lcCCL28-25 peptide (300 μg) or vancomycin hydrochloride (300 μg, 15 mg/kg) was administered by intraperitoneal injection. The control group was injected with an equal volume of PBS. Untreated control mice were sacrificed at the start of treatment to establish the baseline bacterial burden. Mice in the three treatment groups (PBS, vancomycin, and lcCCL28-25) were sacrificed at 48 h postinfection. Their right thighs were aseptically harvested, placed in sterile saline and homogenized using a Bioprep-6 homogenizer (Allsheng, Hangzhou, China). After being serially diluted to 1:10 in sterile saline, 100-μL amounts of tissue suspensions at various concentrations were plated on LB agar to determine bacterial counts after incubation at 37°C for 24 h."}, "[2]": {"test_system": "Staphylococcus aureus USA300", "conditions": "S. aureus USA300", "method": "(§1) The MIC assays were performed as previously described ([43]). Briefly, peptides were plated in a 2-fold dilution series (50 μL/well) of Mueller-Hinton broth (MHB) in Costar 96-well cell culture plates (Corning, NY, USA). Three repeats were set for each concentration. E. coli ATCC 25922, A. hydrophila ATCC 7966, P. aeruginosa PAO1, P. aeruginosa FRD1, S. aureus ATCC 25923, S. agalactiae ATCC 13813, S. pneumoniae ATCC 49619, methicillin-resistant S. aureus ATCC 43300, and methicillin-resistant S. aureus USA300 were cultured in Luria-Bertani (LB) medium, while K. pneumoniae CMCC46117 was cultured in tryptic soy broth (TSB) medium. Incubation was done at 37°C and 150 × g for 12 h. Bacteria were transferred to fresh MHB at a ratio of 1% (vol/vol) and incubated to reach a logarithmic growth phase. Then, 50 μL of a bacterial suspension at 4 × 10^6 CFU/mL was added to each well. After incubation at 37°C for 22 ± 2 h, turbidity was measured using an EnSpire multimode plate reader (PerkinElmer, Singapore) at 595 nm."}, "Gram-negative bacteria": {"test_system": "Gram-negative bacteria", "experiment": "Time-kill curves (4x MIC)", "type": "cell-based", "conditions": "4× MIC", "method": "(§2) Consistent with previous reports, time-kill curves of lcCCL28-25 against Gram-negative and Gram-positive bacteria were performed under 4× MIC conditions ([44]). Bacteria were incubated to the logarithmic growth stage. Bacterial cells in the logarithmic growth phase were diluted to achieve log(CFU/mL) values of ~5 to 6 and incubated with lcCCL28-25 for 1, 2, 4, 8, 16, 30, 60, 120, and 240 min. At each time point, 50-μL amounts of the samples were diluted to different concentrations and plated onto agar plates. After overnight incubation, the numbers of colonies on the plates were counted."}, "Gram-positive bacteria": {"test_system": "Gram-positive bacteria", "experiment": "Time-kill curves (4x MIC)", "type": "cell-based", "conditions": "4× MIC", "method": "as §2"}, "S. aureus ATCC 25923": {"test_system": "S. aureus ATCC 25923", "experiment": "SYTOX green membrane permeability assay", "type": "cell-based, Staphylococcus aureus", "conditions": "S. aureus ATCC 25923, 5 μM SYTOX green, read every 1 min", "method": "The SYTOX green staining assay was performed to assess peptide-associated membrane damage ([47], [52]). E. coli ATCC 25922 and S. aureus ATCC 25923 cells in the mid-logarithmic phase were collected, washed thrice, and resuspended (5 × 10^7 CFU/mL) in buffer B (10 mM Tris-HCl, pH 7.4, at 25°C). The bacterial suspensions were mixed with 5 μM SYTOX green and incubated for 15 min at room temperature in the dark. Then, the mixtures were added to black, clear-bottom 96-well plates at a density of 100 μL/well. After peptide addition, SYTOX green uptake was monitored using an EnSpire multimode plate reader (PerkinElmer, Singapore) with an excitation wavelength of 485 nm and an emission wavelength of 520 nm. Each measurement interval was 1 min, totaling 30 to 60 times. Melittin was used as the positive control, while bovine serum albumin (BSA) was the negative control."}, "[3]": {"test_system": "Klebsiella pneumoniae CMCC46117", "type": "cell-based", "conditions": "CMCC46117, 2 h", "method": "as §1, with “After incubation at 37°C for 22 ± 2 h, turbidity was measured using an EnSpire multimode plate reader (PerkinElmer, Singapore) at 595 nm.” left out"}, "[4]": {"test_system": "Aeromonas hydrophila ATCC 7966", "type": "cell-based", "conditions": "ATCC 7966, 2 h", "method": "as §1, with “After incubation at 37°C for 22 ± 2 h, turbidity was measured using an EnSpire multimode plate reader (PerkinElmer, Singapore) at 595 nm.” left out"}}, "note": "Residues, ends and D or L forms follow the SMILES beside them."}
{"compound": "CSCC[C@H](NC(=O)[C@H](Cc1c[nH]c2ccccc12)NC(=O)[C@H](CCCCN)NC(=O)[C@@H]1CCCN1C(=O)[C@H](Cc1c[nH]cn1)NC(=O)[C@H](C)N)C(=O)N[C@@H](CCC(=O)O)C(=O)N[C@H](C(=O)N[C@H](C(=O)N[C@@H](CCCNC(=N)N)C(=O)N[C@@H](CO)C(=O)N[C@@H](CCCNC(=N)N)C(=O)N[C@@H](CCC(N)=O)C(=O)N[C@@H](CCCNC(=N)N)C(=O)N[C@@H](CCCCN)C(=O)N[C@@H](CCCCN)C(=O)N[C@@H](CCCCN)C(=O)N[C@@H](Cc1c[nH]cn1)C(=O)N[C@@H](CC(N)=O)C(=O)N[C@@H](CCCCN)C(=O)N[C@@H](CCCNC(=N)N)C(=O)N[C@@H](CCCNC(=N)N)C(=O)N[C@@H](C)C(=O)N[C@H](C(=O)N[C@@H](Cc1ccc(O)cc1)C(=O)O)[C@@H](C)O)C(C)C)C(C)C", "note": "[lcCCL28-25] (H-AHPKWMEVVRSRQRKKKHNKRRATY-OH; N-terminus and C-terminus assumed)", "values": [{"measurement": "reduction in average bacterial load in thighs versus control group", "setting": "[1]; S. aureus USA300 i.m., 48 h postinfection", "value": 0.86, "unit": "log10 CFU/g"}, {"measurement": "mice that died after 48 h of infection", "setting": "[1]; n = 9/group, three died in PBS group", "value": "one"}, {"measurement": "decrease in antimicrobial activity with CaCl2", "setting": "[2]; 2.5 mM CaCl2 versus peptide only", "value": 2, "unit": "fold"}, {"measurement": "decrease in antimicrobial activity with NaCl", "setting": "[2]; 150 mM NaCl versus peptide only", "value": 4, "unit": "fold"}, {"measurement": "reduction of antimicrobial activity under 10% serum", "setting": "[2]; 10% mouse serum", "value": 4, "unit": "fold"}, {"measurement": "reduction of antimicrobial activity under 20% serum", "setting": "[2]; 20% mouse serum", "value": 8, "unit": "fold"}, {"measurement": "reduction of antimicrobial activity under 40% serum", "setting": "[2]; 40% mouse serum", "value": 32, "unit": "fold"}, {"measurement": "time for CFU counts to be reduced by more than half", "setting": "Gram-negative bacteria", "value": "more than 1 h"}, {"measurement": "time for CFU counts to be reduced by more than half", "setting": "Gram-positive bacteria", "value": "≤ 10", "unit": "min"}, {"measurement": "SYTOX green fluorescence intensity", "setting": "S. aureus ATCC 25923", "value": "increased rapidly within 20 min"}, {"measurement": "MIC", "setting": "[3]", "value": 25.00, "unit": "µg/mL"}, {"measurement": "MIC", "setting": "[4]", "value": ">50.00", "unit": "µg/mL"}]}
